According to US10550105B2 (Ribon Therapeutics Inc., priority 2018, dated 2020):

Target: PARP7 (Homo sapiens (Human), UniProt Q7Z3E1)
Assay: Enzymatic assay for inhibition of PARP7: TR-FRET displacement of biotinylated Probe A from the TIPARP active site
Assay type: binding
Conditions: Table A-1
Outline: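 Titrated compounds compete with the biotinylated probe; after an additional 30 min incubation at 25° C, time-delayed fluorescence (90 μs) is measured. Inhibition curves use a Hill coefficient that normally floats but may be held at 1.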

Chain of PARP7 (Q7Z3E1 whole entry): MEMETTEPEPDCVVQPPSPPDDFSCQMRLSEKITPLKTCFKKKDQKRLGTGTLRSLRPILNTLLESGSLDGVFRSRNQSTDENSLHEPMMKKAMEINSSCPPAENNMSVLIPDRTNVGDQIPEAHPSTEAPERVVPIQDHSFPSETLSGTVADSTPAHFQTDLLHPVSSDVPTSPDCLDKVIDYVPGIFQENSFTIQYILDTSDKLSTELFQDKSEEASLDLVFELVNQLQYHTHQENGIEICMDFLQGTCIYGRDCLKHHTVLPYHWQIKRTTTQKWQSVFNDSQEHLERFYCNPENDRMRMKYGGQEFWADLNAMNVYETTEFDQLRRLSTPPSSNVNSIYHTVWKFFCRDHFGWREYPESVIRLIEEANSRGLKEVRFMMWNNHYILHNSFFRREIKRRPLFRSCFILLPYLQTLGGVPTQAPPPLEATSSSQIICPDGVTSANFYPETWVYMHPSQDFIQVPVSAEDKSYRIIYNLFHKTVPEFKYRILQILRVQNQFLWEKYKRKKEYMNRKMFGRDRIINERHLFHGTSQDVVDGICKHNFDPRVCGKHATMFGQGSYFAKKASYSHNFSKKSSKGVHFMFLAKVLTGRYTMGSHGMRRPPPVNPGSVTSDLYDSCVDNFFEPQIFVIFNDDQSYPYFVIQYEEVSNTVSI

## N#Cc1cnc(N2CCN(C(=O)c3cccc(OC[C@@H]4c5ccccc5CN4c4cn[nH]c(=O)c4C(F)(F)F)c3)CC2)nc1 [Example 365, (S)-2-(4-(3-((2-(6-oxo-5-(trifluoromethyl)-1,6-dihydropyridazin-4-yl)isoindolin-1-yl)methoxy)benzoyl)piperazin-1-yl)pyrimidine-5-carbonitrile]
  IC50: < 100 nM

## N#Cc1cnc(N2CCN(C(=O)c3cccc(OCC4c5ccccc5CN4c4cn[nH]c(=O)c4C(F)(F)F)c3)CC2)cn1 (centres unmarked) [Example 366, 5-(4-(3-((2-(6-Oxo-5-(trifluoromethyl)-1,6-dihydropyridazin-4-yl)isoindolin-1-yl)methoxy)benzoyl)piperazin-1-yl)pyrazine-2-carbonitrile]
  IC50: < 100 nM

## O=C(c1cccc(OCC2c3ccccc3CN2c2cn[nH]c(=O)c2C(F)(F)F)c1)N1CCn2c(nnc2C(F)(F)F)C1 (centres unmarked) [Example 367, 4-(Trifluoromethyl)-5-(1-((3-(3-(trifluoromethyl)-5,6,7,8-tetrahydro-[1,2,4]triazolo[4,3-a]pyrazine-7-carbonyl)phenoxy)methyl)isoindolin-2-yl)pyridazin-3(2H)-one]
  IC50: < 100 nM

## O=C(c1cccc(OCC2c3ccccc3CN2c2cn[nH]c(=O)c2C(F)(F)F)c1)N1CCN(c2ccc(C(F)(F)F)cn2)CC1 (centres unmarked) [Example 368, 4-(Trifluoromethyl)-5-(1-((3-(4-(5-(trifluoromethyl)pyridin-2-yl)piperazine-1-carbonyl)phenoxy)methyl)isoindolin-2-yl)pyridazin-3(2H)-one]
  IC50: < 100 nM

## N#Cc1cnc(N2CCN(C(=O)c3cccc(OC[C@H]4c5ccccc5CN4c4cn[nH]c(=O)c4C(F)(F)F)c3)CC2)cn1 [Example 369, (R)-5-(4-(3-((2-(6-Oxo-5-(trifluoromethyl)-1,6-dihydropyridazin-4-yl)isoindohn-1-yl)methoxy)benzoyl)piperazin-1-yl)pyrazine-2-carbonitrile]
  IC50: 100 to 1000 nM

## N#Cc1cnc(N2CCN(C(=O)c3cccc(OC[C@@H]4c5ccccc5CN4c4cn[nH]c(=O)c4C(F)(F)F)c3)CC2)cn1 [Example 370, (S)-5-(4-(3-((2-(6-Oxo-5-(trifluoromethyl)-1,6-dihydropyridazin-4-yl)isoindohn-1-yl)methoxy)benzoyl)piperazin-1-yl)pyrazine-2-carbonitrile]
  IC50: < 100 nM

## N#Cc1ccc(N2CCN(C(=O)c3ccc(OCC4c5ccccc5CN4c4cn[nH]c(=O)c4C(F)(F)F)cc3)CC2)nc1 (centres unmarked) [Example 371, 6-(4-(4-((2-(6-Oxo-5-(trifluoromethyl)-1,6-dihydropyridazin-4-yl)isoindolin-1-yl)methoxy)benzoyl)piperazin-1-yl)nicotinonitrile]
  IC50: 100 to 1000 nM

## O=C(c1cccc(OC[C@H]2c3ccccc3CN2c2cn[nH]c(=O)c2C(F)(F)F)c1)N1CCn2c(nnc2C(F)(F)F)C1 [Example 372, (R)-4-(Trifluoromethyl)-5-(1-((3-(3-(trifluoromethyl)-5,6,7,8-tetrahydro-[1,2,4]triazolo[4,3-a]pyrazine-7-carbonyl)phenoxy)methyl)isoindolin-2-yl)pyridazin-3(2H)-one]
  IC50: ≥ 1000 nM

## O=C(c1cccc(OC[C@@H]2c3ccccc3CN2c2cn[nH]c(=O)c2C(F)(F)F)c1)N1CCn2c(nnc2C(F)(F)F)C1 [Example 373, (S)-4-(Trifluoromethyl)-5-(1-((3-(3-(trifluoromethyl)-5,6,7,8-tetrahydro-[1,2,4]triazolo[4,3-a]pyrazine-7-carbonyl)phenoxy)methyl)isoindolin-2-yl)pyridazin-3(2H)-one]
  IC50: < 100 nM

## O=C(c1cncc(OCC2c3ccccc3CN2c2cn[nH]c(=O)c2C(F)(F)F)c1)N1CCN(c2ccc(C(F)(F)F)cn2)CC1 (centres unmarked) [Example 374, 4-(Trifluoromethyl)-5-(1-(((5-(4-(5-(trifluoromethyl)pyridin-2-yl)piperazine-1-carbonyl)pyridin-3-yl)oxy)methyl)isoindolin-2-yl)pyridazin-3(2H)-one]
  IC50: < 100 nM

## O=C(c1cncc(OCC2c3ccccc3CN2c2cn[nH]c(=O)c2C(F)(F)F)c1)N1CCN(c2ccc(F)cn2)CC1 (centres unmarked) [Example 375, 5-(1-(((5-(4-(5-Fluoropyridin-2-yl)piperazine-1-carbonyl)pyridin-3-yl)oxy)methyl)isoindolin-2-yl)-4-(trifluoromethyl)pyridazin-3(2H)-one]
  IC50: < 100 nM

## O=C(c1cncc(OCC2c3ccccc3CN2c2cn[nH]c(=O)c2C(F)(F)F)c1)N1CCN(c2ccc(Cl)cn2)CC1 (centres unmarked) [Example 376, 5-(1-(((5-(4-(5-Chloropyridin-2-yl)piperazine-1-carbonyl)pyridin-3-yl)oxy)methyl)isoindolin-2-yl)-4-(trifluoromethyl)pyridazin-3(2H)-one]
  IC50: < 100 nM

## O=C(c1cccc(OCC2c3ccccc3CN2c2cn[nH]c(=O)c2C(F)(F)F)c1)N1CCN(c2ncc(C(F)(F)F)cn2)CC1 (centres unmarked) [Example 377, 4-(Trifluoromethyl)-5-(1-((3-(4-(5-(trifluoromethyl)pyrimidin-2-yl)piperazine-1-carbonyl)phenoxy)methyl)isoindolin-2-yl)pyridazin-3(2H)-one]
  IC50: < 100 nM

## O=C(c1cncc(OCC2c3ccccc3CN2c2cn[nH]c(=O)c2C(F)(F)F)c1)N1CCN(c2ncc(C(F)(F)F)cn2)CC1 (centres unmarked) [Example 378, 4-(Trifluoromethyl)-5-(1-(((5-(4-(5-(trifluoromethyl)pyrimidin-2-yl)piperazine-1-carbonyl)pyridin-3-yl)oxy)methyl)isoindolin-2-yl)pyridazin-3(2H)-one]
  IC50: < 100 nM

## N#Cc1cnc(N2CCN(C(=O)c3cncc(OCC4c5ccccc5CN4c4cn[nH]c(=O)c4C(F)(F)F)c3)CC2)nc1 (centres unmarked) [Example 379, 2-(4-(5-((2-(6-Oxo-5-(trifluoromethyl)-1,6-dihydropyridazin-4-yl)isoindolin-1-yl)methoxy)nicotinoyl)piperazin-1-yl)pyrimidine-5-carbonitrile]
  IC50: < 100 nM

## N#Cc1cnc(N2CCN(C(=O)c3cc(OCC4c5ccccc5CN4c4cn[nH]c(=O)c4C(F)(F)F)ccn3)CC2)nc1 (centres unmarked) [Example 380, 2-(4-(4-((2-(6-Oxo-5-(trifluoromethyl)-1,6-dihydropyridazin-4-yl)isoindolin-1-yl)methoxy)picolinoyl)piperazin-1-yl)pyrimidine-5-carbonitrile]
  IC50: < 100 nM

## N#Cc1ccc(N2CCN(C(=O)c3ccnc(OCC4c5ccccc5CN4c4cn[nH]c(=O)c4C(F)(F)F)c3)CC2)nc1 (centres unmarked) [Example 381, 6-(4-(2-((2-(6-Oxo-5-(trifluoromethyl)-1,6-dihydropyridazin-4-yl)isoindolin-1-yl)methoxy)isonicotinoyl)piperazin-1-yl)nicotinonitrile]
  IC50: < 100 nM

## N#Cc1ccc(N2CCN(C(=O)c3ccnc(OCC4c5ccccc5CN4c4cn[nH]c(=O)c4C(F)(F)F)n3)CC2)nc1 (centres unmarked) [Example 383, 6-(4-(2-((2-(6-Oxo-5-(trifluoromethyl)-1,6-dihydropyridazin-4-yl)isoindolin-1-yl)methoxy)pyrimidine-4-carbonyl)piperazin-1-yl)nicotinonitrile]
  IC50: < 100 nM

## O=C(c1cncc(OC[C@@H]2c3ccccc3CN2c2cn[nH]c(=O)c2C(F)(F)F)c1)N1CCN(c2ccc(C(F)(F)F)cn2)CC1 [Example 384, (S)-4-(Trifluoromethyl)-5-(1-(((5-(4-(5-(trifluoromethyl)pyridin-2-yl)piperazine-1-carbonyl)pyridin-3-yl)oxy)methyl)isoindolin-2-yl)pyridazin-3(2H)-one]
  IC50: < 100 nM

## O=C(c1cncc(OC[C@H]2c3ccccc3CN2c2cn[nH]c(=O)c2C(F)(F)F)c1)N1CCN(c2ccc(C(F)(F)F)cn2)CC1 [Example 385, (R)-4-(Trifluoromethyl)-5-(1-(((5-(4-(5-(trifluoromethyl)pyridin-2-yl)piperazine-1-carbonyl)pyridin-3-yl)oxy)methyl)isoindolin-2-yl)pyridazin-3(2H)-one]
  IC50: 100 to 1000 nM

## O=C(c1cncc(OC[C@@H]2c3ccccc3CN2c2cn[nH]c(=O)c2C(F)(F)F)c1)N1CCN(c2ccc(F)cn2)CC1 [Example 386, (5)-5-(1-(((5-(4-(5-Fluoropyridin-2-yl)piperazine-1-carbonyl)pyridin-3-yl)oxy)methyl)isoindolin-2-yl)-4-(trifluoromethyl)pyridazin-3(2H)-one]
  IC50: < 100 nM

## O=C(c1cncc(OC[C@H]2c3ccccc3CN2c2cn[nH]c(=O)c2C(F)(F)F)c1)N1CCN(c2ccc(F)cn2)CC1 [Example 387, (R)-5-(1-(((5-(4-(5-Fluoropyridin-2-yl)piperazine-1-carbonyl)pyridin-3-yl)oxy)methyl)isoindolin-2-yl)-4-(trifluoromethyl)pyridazin-3(2H)-one]
  IC50: ≥ 1000 nM

## O=C(c1cncc(OC[C@@H]2c3ccccc3CN2c2cn[nH]c(=O)c2C(F)(F)F)c1)N1CCN(c2ccc(Cl)cn2)CC1 [Example 388, (S)-5-(1-(((5-(4-(5-Chloropyridin-2-yl)piperazine-1-carbonyl)pyridin-3-yl)oxy)methyl)isoindolin-2-yl)-4-(trifluoromethyl)pyridazin-3(2H)-one]
  IC50: < 100 nM

## O=C(c1cncc(OC[C@H]2c3ccccc3CN2c2cn[nH]c(=O)c2C(F)(F)F)c1)N1CCN(c2ccc(Cl)cn2)CC1 [Example 389, (R)-5-(1-(((5-(4-(5-Chloropyridin-2-yl)piperazine-1-carbonyl)pyridin-3-yl)oxy)methyl)isoindolin-2-yl)-4-(trifluoromethyl)pyridazin-3(2H)-one]
  IC50: 100 to 1000 nM

## O=C(c1cccc(OC[C@@H]2c3ccccc3CN2c2cn[nH]c(=O)c2C(F)(F)F)c1)N1CCN(c2ncc(C(F)(F)F)cn2)CC1 [Example 390, (S)-4-(Trifluoromethyl)-5-(1-((3-(4-(5-(trifluoromethyl)pyrimidin-2-yl)piperazine-1-carbonyl)phenoxy)methyl)isoindolin-2-yl)pyridazin-3(2H)-one]
  IC50: < 100 nM

## O=C(c1cccc(OC[C@H]2c3ccccc3CN2c2cn[nH]c(=O)c2C(F)(F)F)c1)N1CCN(c2ncc(C(F)(F)F)cn2)CC1 [Example 391, (R)-4-(Trifluoromethyl)-5-(1-((3-(4-(5-(trifluoromethyl)pyrimidin-2-yl)piperazine-1-carbonyl)phenoxy)methyl)isoindolin-2-yl)pyridazin-3(2H)-one]
  IC50: ≥ 1000 nM
